Data published in patent US7893090B2, “N-aroyl cyclic amine derivatives as orexin receptor antagonists” (SmithKline Beecham Limited, priority 2001, dated 2011).

What was measured:
[1] = Rat sleep/EEG studies after central administration; format: in vivo; conditions: central administration at the onset of the normal sleep period; at the expense of paradoxical sleep and slow wave sleep 2
From the text: Therefore antagonists of its receptor may be useful in the treatment of sleep disorders including insomnia.

[2] = central administration, freely-feeding rats, 4 hour time period; cited from earlier work

In the case of “orexin-A: ligand for the orexin-1 receptor, an agonist of the orexin receptors; 33-residue peptide, SEQ ID NO:1 (EPLPDCCRQKTCSCRLYELLHGAGNHAAGILTLNH; Homo sapien)”, the “arousal in rat sleep/EEG” value [1] is listed as “dose-related increase in arousal” and the “increase in food intake over control rats receiving vehicle” value [2] is listed as “approximately four-fold”.
